In ChEMBL document CHEMBL5038640, “Natural Berberine-derived Azolyl Ethanols as New Structural Antibacterial Agents against Drug-Resistant Escherichia coli” (J Med Chem, 2022):
Values after ≈ are worked out from the molar mass of the structure shown. Active and inactive are the calls of the source. The calls are words filed in the database; no cut-off is given here.

Assays:
[1] = tested on: Staphylococcus aureus; assay: Antibacterial activity against methicillin-resistant Staphylococcus aureus N315 assessed as decrease in bacterial growth incubated for 18 hrs by broth microdilution method; assay type: functional
[2] = tested on: Enterococcus faecalis; assay: Antibacterial activity against Enterococcus faecalis assessed as decrease in bacterial growth incubated for 18 hrs by broth microdilution method; assay type: functional
[3] = tested on: Staphylococcus aureus; assay: Antibacterial activity against Staphylococcus aureus assessed as decrease in bacterial growth incubated for 18 hrs by broth microdilution method; assay type: functional
[4] = tested on: Staphylococcus aureus; assay: Antibacterial activity against Staphylococcus aureus ATCC 25923 assessed as decrease in bacterial growth incubated for 18 hrs by broth microdilution method; assay type: functional
[5] = tested on: Staphylococcus aureus; assay: Antibacterial activity against Staphylococcus aureus ATCC 29213 assessed as decrease in bacterial growth incubated for 18 hrs by broth microdilution method; assay type: functional
[6] = tested on: Klebsiella pneumoniae; assay: Antibacterial activity against Klebsiella pneumoniae assessed as decrease in bacterial growth incubated for 18 hrs by broth microdilution method; assay type: functional
[7] = tested on: Escherichia coli; assay: Antibacterial activity against Escherichia coli assessed as decrease in bacterial growth incubated for 18 hrs by broth microdilution method; assay type: functional
[8] = tested on: Pseudomonas aeruginosa; assay: Antibacterial activity against Pseudomonas aeruginosa assessed as decrease in bacterial growth incubated for 18 hrs by broth microdilution method; assay type: functional
[9] = tested on: Acinetobacter baumannii; assay: Antibacterial activity against Acinetobacter baumannii assessed as decrease in bacterial growth incubated for 18 hrs by broth microdilution method; assay type: functional
[10] = tested on: Pseudomonas aeruginosa; assay: Antibacterial activity against Pseudomonas aeruginosa ATCC 27853 assessed as decrease in bacterial growth incubated for 18 hrs by broth microdilution method; assay type: functional
[11] = tested on: Escherichia coli; assay: Antibacterial activity against Escherichia coli ATCC 25922 assessed as decrease in bacterial growth incubated for 18 hrs by broth microdilution method; assay type: functional
[12] = tested on: Escherichia coli; assay: Induction of bacterial resistance in Escherichia coli assessed as fold increase in MIC measured after 16 days by resistance development assay; assay type: functional; conditions: time 16.0 day
[13] = tested on: Escherichia coli; assay: Anti-bioflim activity against Escherichia coli assessed as inhibition of bioflim formation at MIC incubated for 24 hrs followed by compound washout by crystal violet staining based assay; assay type: functional
[14] = tested on: Cell membrane; assay: Induction of membrane disruption in Escherichia coli at 2 times of MIC incubated for 6 hrs by DAPI staining and propidium iodide staining based fluorescence assay; assay type: subcellular
[15] = tested on: Escherichia coli; assay: Antibacterial activity against Escherichia coli assessed as reduction in metabolic activity in presence of resazurin measured after 6 hrs by alamar blue assay; assay type: functional, organism-based
[16] = tested on: Calf thymus DNA; assay: Binding affinity to calf thymus DNA assessed as red shift in absorption spectra at pH 7.4 by UV-vis absorption spectroscopy; assay type: nucleic-acid assay; conditions: Bos taurus
[17] = tested on: Cell membrane; assay: Induction of cell membrane disruption in Escherichia coli assessed as increase in protein leakage upto 0.192 mM by Bradford assay; assay type: subcellular; conditions: dose mM <=0.192
[18] = tested on: Cell membrane; assay: Induction of cell membrane disruption in Escherichia coli assessed as increase in protein leakage upto 0.224 mM by Bradford assay; assay type: subcellular; conditions: dose mM <=0.224
[19] = Aqueous solubility of the compound in saline; assay type: physicochemical
[20] = Hemolytic activity against human RBC assessed as 50% hemolysis measured upto 64 times of MIC after 1 to 8 hr; assay type: toxicity, cell-based; conditions: erythrocyte, time 1-8 hrs
[21] = Cytotoxicity against human FHC cells assessed as cell viability upto 0.100 mM incubated for 24 hrs by MTT assay; assay type: toxicity, cell-based; conditions: read-out: Activity
[22] = Cytotoxicity against human PNT1A cells assessed as cell viability upto 0.100 mM incubated for 24 hrs by MTT assay; assay type: toxicity, cell-based; conditions: read-out: Activity
[23] = tested on: A549; assay: Cytotoxicity against human A549 cells assessed as cell viability upto 0.100 mM incubated for 24 hrs by MTT assay; assay type: functional, cell-based; conditions: dose mM <=0.100, time 24.0 hrs
[24] = tested on: Escherichia coli; assay: Biofilm disruption activity in Escherichia coli at MIC incubated for 24 hrs by crystal violet staining based assay; assay type: functional; conditions: dose 0.007 mM
[25] = tested on: Escherichia coli; assay: Biofilm disruption activity in Escherichia coli assessed as reduction in exo-polysaccharide incubated for 24 hrs by crystal violet staining based assay; assay type: functional, organism-based
[26] = tested on: Escherichia coli; assay: Bactericidal activity against Escherichia coli assessed as reduction in colony formation at 8 times MIC measured after upto 6 hrs by time kill assay; assay type: functional, organism-based; conditions: time hrs <=6
[27] = tested on: Escherichia coli; assay: Induction of bacterial resistance in Escherichia coli assessed as change in MIC measured after 16 days by resistance development assay; assay type: functional; conditions: time 16.0 day
[28] = tested on: Cell membrane; assay: Induction of Inner membrane permeabilization in Escherichia coli assessed as increase in fluorescence intensity at MIC incubated for 6 hrs by PI staining based assay; assay type: subcellular
[29] = tested on: Cell membrane; assay: Induction of outer membrane permeabilization in Escherichia coli assessed as increase in fluorescence intensity at MIC incubated for 6 hrs by NPN-dye based fluorescence assay; assay type: subcellular
[30] = tested on: DNA; assay: Competitive binding affinity to Escherichia coli DNA assessed as DNA intercalation by AO staining based assay; assay type: nucleic-acid assay
[31] = tested on: Escherichia coli; assay: Biofilm disruption activity in Escherichia coli assessed as mass loss of biofilm upto 0.096 mM incubated for 24 hrs by crystal violet staining based assay; assay type: functional, organism-based; conditions: dose mM <=0.096, time 24.0 hrs
[32] = tested on: Escherichia coli; assay: Induction of intracellular ROS production in Escherichia coli assessed as increase in ROS accumulation at 0.006 to 0.192 mM incubated for 6 hrs by DCFH-DA assay; assay type: functional, organism-based; conditions: dose 0.006-0.192 mM
[33] = tested on: Cell membrane; assay: Induction of membrane depolarization in Escherichia coli at 0.006 to 0.096 mM incubated for 6 hrs by DiSC35 dye-based fluorescence assay; assay type: subcellular; conditions: dose 0.006-0.096 mM
[34] = tested on: Escherichia coli; assay: Induction of intracellular ROS production in Escherichia coli assessed as increase in ROS accumulation at 0.007 to 0.224 mM incubated for 6 hrs by DCFH-DA assay; assay type: functional, organism-based; conditions: dose 0.007-0.224 mM
[35] = tested on: Cell membrane; assay: Induction of membrane depolarization in Escherichia coli at 0.007 to 0.112 mM incubated for 6 hrs by DiSC35 dye-based fluorescence assay; assay type: subcellular; conditions: dose 0.007-0.112 mM
[36] = tested on: Escherichia coli; assay: Biofilm disruption activity in Escherichia coli assessed as mass loss of biofilm upto 0.112 mM incubated for 24 hrs by crystal violet staining based assay; assay type: functional, organism-based; conditions: dose mM <=0.112, time 24.0 hrs

Structure (SMILES) | MIC [1] [µM] | MIC [2] [µM] | MIC [3] [µM] | MIC [4] [µM] | MIC [5] [µM] | MIC [6] [µM] | MIC [7] [µM] | MIC [8] [µM] | MIC [9] [µM] | MIC [10] [µM] | MIC [11] [µM] | inhibition (INH) [13] [%] | Activity [14] | Activity [15] | Activity [16] | Activity [17] | Activity [18] | solubility [19] [µM] | Activity [20] | viability at 24 h [21] [%] | other results
CCn1cc(C(=O)O)c(=O)c2cc(F)c(N3CCNCC3)cc21 [NORFLOXACIN] | 25 (≈ 7.98 µg/mL) | 6 (≈ 1.92 µg/mL) | 2 (≈ 0.639 µg/mL) | 13 (≈ 4.15 µg/mL) | 100 (≈ 31.9 µg/mL) | 6 (≈ 1.92 µg/mL) | 13 (≈ 4.15 µg/mL) | 25 (≈ 7.98 µg/mL) | 6 (≈ 1.92 µg/mL) | 200 (≈ 63.9 µg/mL) | 13 (≈ 4.15 µg/mL) |  |  |  |  |  |  |  |  |  | fold change (FC) [12]: 64
COc1ccc2cc3[n+](cc2c1OCC(O)CSc1nc2ccccc2s1)CCc1cc2c(cc1-3)OCO2.[Br-] (stereo not drawn) | 6 | 51 | 51 | 13 | 51 | 13 | 6 | 102 | 26 | 51 | 51 | 21.87 | Active | Active | Active | Active | Active | 770 | Non-Toxic | 70 | viability at 24 h [22]: 70%; Activity [23]: inactive; Activity [24]: 15%; Activity [25]: Active; Activity [26]: Active; Activity [27]: inactive; Activity [12]: inactive; Activity [28]: Active; Activity [29]: Active; Activity [30]: Active; Activity [31]: Dose-Dependent Effect; Activity [32]: Active; Activity [33]: Active
COc1ccc2cc3[n+](cc2c1OCC(O)Cn1c([N+](=O)[O-])cnc1C)CCc1cc2c(cc1-3)OCO2.[Br-] (stereo not drawn) | 14 | 14 | 109 | 55 | 55 | 27 | 7 | 55 | 14 | 55 | 55 | 28.25 | Active | Active | Active | Active | Active | 908 | Non-Toxic | 70 | Activity [34]: Active; viability at 24 h [22]: 70%; Activity [23]: inactive; Activity [24]: 40%; Activity [25]: Active; Activity [26]: Active; Activity [27]: inactive; Activity [12]: inactive; Activity [35]: Active; Activity [28]: Active; Activity [29]: Active; Activity [30]: Active; Activity [36]: Dose-Dependent Effect
